Laboratory results: patent US20250163104A1, “MACROCYCLIC IMMUNOMODULATORS” (priority 2021, published 2025)
Where a SMILES comes first, the peptide text is derived from it. Bridges are numbered along the chain shown (N, C = ends). [ ]: non-standard residue; d: D form. The star is where a group is joined. ξ: configuration not given here. Phe(4-COOH) = N[C@@H](Cc1ccc(C(=O)O)cc1)C(=O)O; Bip = N[C@@H](Cc1ccc(-c2ccccc2)cc1)C(=O)O; Phe(3-Me) = Cc1cccc(C[C@H](N)C(=O)O)c1; Val(3-OH) = CC(C)(O)[C@H](N)C(=O)O; 4Pal = N[C@@H](Cc1ccncc1)C(=O)O; Cha = N[C@@H](CC1CCCCC1)C(=O)O; Thr(3ξ) = CC(O)[C@H](N)C(=O)O; Carboxymethyl = O=C(O)C*; Orn = NCCC[C@H](N)C(=O)O; Dab = NCC[C@H](N)C(=O)O

target: T1, human PD-1 / PD-L1-Ig binding on Jurkat cell line over-expressing human PD-1 (Jurkat-PD-1) (Homo sapiens, UniProt Q15116); test: Jurkat-PD-1 Cell Binding High-Content Screening Assay (CBA); assay type: cell-based; conditions: Jurkat-PD-1 cells, PE-labeled PD-L1-Ig 20 nM final; read-out: Jurkat HPD1_PDL1 IC50
T1 construct: expressed in transfected cells; host or cells: Jurkat
Outline: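 Cell-bound PE-labeled PD-L1-Ig (20 nM final, 1 h) measured by high-content imaging after fixation and Hoechst 33342 counterstain. Compound was applied first for 2 h at 37° C. to Jurkat cells over-expressing human PD-1 in DMEM with 10% FCS.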

T1 sequence (Q15116 25-288): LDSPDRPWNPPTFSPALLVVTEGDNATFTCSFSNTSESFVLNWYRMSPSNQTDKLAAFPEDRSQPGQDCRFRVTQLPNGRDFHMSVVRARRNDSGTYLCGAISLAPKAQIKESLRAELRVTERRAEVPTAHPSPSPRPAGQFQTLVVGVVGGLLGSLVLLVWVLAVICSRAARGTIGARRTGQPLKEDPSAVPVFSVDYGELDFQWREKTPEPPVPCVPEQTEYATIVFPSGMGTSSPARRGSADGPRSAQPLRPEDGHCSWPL

IC50 [nM] | SMILES
35 | Cc1cccc(C[C@@H]2NC(=O)[C@H](CC(=O)O)NC(=O)[C@H](Cc3ccc(OCC(=O)O)cc3)NC(=O)[C@H](C(C)O)NC(=O)CSC[C@@H](C(=O)N[C@H](CC(N)=O)C(N)=O)NC(=O)[C@H](C(C)O)NC(=O)[C@H](C(C)C)NC(=O)[C@H](CC3CCCCC3)NC(=O)[C@H](CCN)NC(=O)[C@@H](CC(C)C)NC(=O)[C@H](CCCN)NC(=O)[C@H](Cc3ccc(OCC(=O)O)cc3)NC(=O)[C@H](Cc3ccc(-c4ccccc4)cc3)NC(=O)[C@H](Cc3ccc(OCC(=O)O)cc3)NC2=O)c1 (stereo partly drawn) [Compound 2640] ({CH2CO}-[Thr(3ξ)]Y(Carboxymethyl)D[Phe(3-Me)]Y(Carboxymethyl)[Bip]Y(Carboxymethyl)[Orn][dL][Dab][Cha]V[Thr(3ξ)]C[dN]-NH2; thioether N-14)
3.5 | Cc1cccc(C[C@@H]2NC(=O)[C@H](CC(=O)O)NC(=O)[C@H](Cc3ccc(OCC(=O)O)cc3)NC(=O)[C@H](Cc3ccncc3)NC(=O)CSC[C@@H](C(=O)N[C@@H](CCN)C(N)=O)NC(=O)[C@H](CO)NC(=O)[C@H](C(C)(C)O)NC(=O)[C@H](CC3CCCCC3)NC(=O)[C@H](CCN)NC(=O)[C@@H](CC(C)C)NC(=O)[C@H](CCC(N)=O)NC(=O)[C@H](Cc3ccc(OCC(=O)O)cc3)NC(=O)[C@H](Cc3ccc(-c4ccccc4)cc3)NC(=O)[C@H](Cc3ccc(OCC(=O)O)cc3)NC2=O)c1 [Compound 2642] ({CH2CO}-[4Pal]Y(Carboxymethyl)D[Phe(3-Me)]Y(Carboxymethyl)[Bip]Y(Carboxymethyl)Q[dL][Dab][Cha][Val(3-OH)]SC[Dab]-NH2; thioether N-14)
7.3 | Cc1cccc(C[C@@H]2NC(=O)[C@H](CC(=O)O)NC(=O)[C@H](Cc3ccc(OCC(=O)O)cc3)NC(=O)[C@H](Cc3ccncc3)NC(=O)CSC[C@@H](C(=O)N[C@@H](CCN)C(N)=O)NC(=O)[C@H](CO)NC(=O)[C@H](C(C)(C)O)NC(=O)[C@H](CC3CCCCC3)NC(=O)[C@H](CCN)NC(=O)[C@@H](CC(C)C)NC(=O)[C@H](CCC(N)=O)NC(=O)[C@H](Cc3ccc(C(=O)O)cc3)NC(=O)[C@H](Cc3ccc(-c4ccccc4)cc3)NC(=O)[C@H](Cc3ccc(C(=O)O)cc3)NC2=O)c1 [Compound 2643] ({CH2CO}-[4Pal]Y(Carboxymethyl)D[Phe(3-Me)][Phe(4-COOH)][Bip][Phe(4-COOH)]Q[dL][Dab][Cha][Val(3-OH)]SC[Dab]-NH2; thioether N-14)
13.6 | Cc1cccc(C[C@@H]2NC(=O)[C@H](CC(=O)O)NC(=O)[C@H](Cc3ccc(OCC(=O)O)cc3)NC(=O)[C@H](CCN)NC(=O)CSC[C@@H](C(=O)N[C@@H](CCN)C(N)=O)NC(=O)[C@H](Cc3cnc[nH]3)NC(=O)[C@H](C(C)C)NC(=O)[C@H](CC3CCCCC3)NC(=O)[C@H](CCN)NC(=O)[C@@H](CC(C)C)NC(=O)[C@H](CCCN)NC(=O)[C@H](Cc3ccc(OCC(=O)O)cc3)NC(=O)[C@H](Cc3ccc(-c4ccccc4)cc3)NC(=O)[C@H](C(C)C)NC2=O)c1 [Compound 2644] ({CH2CO}-[Dab]Y(Carboxymethyl)D[Phe(3-Me)]V[Bip]Y(Carboxymethyl)[Orn][dL][Dab][Cha]VHC[Dab]-NH2; thioether N-14)
11.7 | Cc1cccc(C[C@@H]2NC(=O)[C@H](CC(=O)O)NC(=O)[C@H](Cc3ccc(OCC(=O)O)cc3)NC(=O)[C@H](Cc3ccncc3)NC(=O)CSC[C@@H](C(=O)N[C@@H](CCN)C(N)=O)NC(=O)[C@H](CO)NC(=O)[C@H](C(C)(C)O)NC(=O)[C@H](CC3CCCCC3)NC(=O)[C@H](Cc3cnc[nH]3)NC(=O)[C@@H](CC(C)C)NC(=O)[C@H](CCCN)NC(=O)[C@H](Cc3ccc(OCC(=O)O)cc3)NC(=O)[C@H](Cc3ccc(-c4ccccc4)cc3)NC(=O)[C@H](Cc3ccc(OCC(=O)O)cc3)NC2=O)c1 [Compound 2645] ({CH2CO}-[4Pal]Y(Carboxymethyl)D[Phe(3-Me)]Y(Carboxymethyl)[Bip]Y(Carboxymethyl)[Orn][dL]H[Cha][Val(3-OH)]SC[Dab]-NH2; thioether N-14)
